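Protocol summary: plate cells (96-well), add compound at 5 concentrations, incubate 48 h, interpolate endpoints linearly. GI50 = concentration required for 50% inhibition of growth. At the TGI there is no net growth.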
What was measured:
Assay in all cases: growth of human tumour cells (NCI), 48 h
[1] = test system: SR leukemia
[2] = test system: MOLT-4 leukemia
[3] = test system: COLO 205 colon
[4] = test system: IGROV1 ovarian
[5] = test system: EKVX NSCLC
[6] = test system: HOP-62 NSCLC
[7] = test system: M14 melanoma
[8] = test system: HCT-116 colon
[9] = test system: A498 renal
[10] = test system: SK-OV-3 ovarian
[11] = test system: 786-0 renal
[12] = test system: MALME-3M melanoma
[13] = test system: SK-MEL-28 melanoma
[14] = test system: SNB-19 CNS
[15] = test system: CCRF-CEM leukemia
[16] = test system: SF-295 CNS
[17] = test system: HL-60(TB) leukemia
[18] = test system: RPMI-8226 leukemia
[19] = test system: SK-MEL-2 melanoma
[20] = test system: K-562 leukemia
[21] = test system: TK-10 renal
[22] = test system: NCI/ADR-RES ovarian
[23] = test system: SF-539 CNS
[24] = test system: NCI-H23 lung
[25] = test system: HCT-15 colon
[26] = test system: MCF7 breast
[27] = test system: BT-549 breast
[28] = test system: A549 NSCLC
[29] = test system: T-47D breast
[30] = test system: HS 578T breast
[31] = test system: HCC-2998 colon
[32] = test system: U251 CNS
[33] = test system: OVCAR-3 ovarian
[34] = test system: OVCAR-4 ovarian
[35] = test system: CAKI-1 renal
[36] = test system: UACC-257 melanoma
[37] = test system: SK-MEL-5 melanoma
[38] = test system: KM12 colon
[39] = test system: HOP-92 NSCLC
[40] = test system: SN12C renal
[41] = test system: SF-268 CNS
[42] = test system: UACC-62 melanoma
[43] = test system: OVCAR-8 ovarian
[44] = test system: DU-145 prostate
[45] = test system: MDA-MB-231 breast
[46] = test system: NCI-H522 lung
[47] = test system: HT29 colon
[48] = test system: MDA-MB-435
[49] = test system: UO-31 renal
[50] = test system: SW-620 colon
[51] = test system: PC-3 prostate
[52] = test system: NCI-H460 lung
[53] = test system: ACHN renal
[54] = test system: LOX IMVI melanoma
[55] = test system: NCI-H226 lung
[56] = test system: SNB-75 CNS
[57] = test system: RXF 393 renal
[58] = test system: OVCAR-5 ovarian

`CN1CCN(Cc2ccc(NC(=O)c3nc4ccc5[nH]ncc5c4c4c3CCCC4)cc2C(F)(F)F)CC1` was tested. Which GI50 [1] did it give?
The GI50 was 0.469 µM.

And the TGI [1]?
Its TGI is 3.48 µM.

What about the GI50 [2] of the same compound?
The GI50 was 0.995 µM.

And the TGI [2]?
The TGI was 2.39 µM.

And the GI50 [3]?
The GI50 was 0.88 µM.

And the TGI [3]?
Its TGI is 1.73 µM.

What about the GI50 [4] of the same compound?
The GI50 was 0.883 µM.

And the TGI [4]?
The TGI was 1.67 µM.

What about the GI50 [5] of the same compound?
Its GI50 is 0.802 µM.

And the TGI [5]?
The TGI was 1.53 µM.

What about the GI50 [6] of the same compound?
Its GI50 is 0.967 µM.

And the TGI [6]?
Its TGI is 1.92 µM.

And the GI50 [7]?
Its GI50 is 0.902 µM.

What about the TGI [7] of the same compound?
Its TGI is 1.77 µM.

And the GI50 [8]?
Its GI50 is 0.855 µM.

And the TGI [8]?
Its TGI is 1.71 µM.

And the GI50 [9]?
Its GI50 is 0.977 µM.

And the TGI [9]?
The TGI was 2.32 µM.

And the GI50 [10]?
The GI50 was 7.08 µM.

And the TGI [10]?
Its TGI is 14 µM.

And the GI50 [11]?
The GI50 was 0.895 µM.

What about the TGI [11] of the same compound?
The TGI was 1.73 µM.

What about the GI50 [12] of the same compound?
Its GI50 is 0.764 µM.

And the TGI [12]?
Its TGI is 1.53 µM.

And the GI50 [13]?
Its GI50 is 0.862 µM.

And the TGI [13]?
The TGI was 1.58 µM.

What about the GI50 [14] of the same compound?
The GI50 was 0.868 µM.

And the TGI [14]?
Its TGI is 1.62 µM.

What about the GI50 [15] of the same compound?
The GI50 was 1.12 µM.

What about the TGI [15] of the same compound?
The TGI was 2.99 µM.

And the GI50 [16]?
Its GI50 is 0.879 µM.

And the TGI [16]?
The TGI was 1.65 µM.

And the GI50 [17]?
Its GI50 is 0.943 µM.

And the TGI [17]?
Its TGI is 2.02 µM.

And the GI50 [18]?
Its GI50 is 1.11 µM.

And the TGI [18]?
Its TGI is 2.69 µM.

And the GI50 [19]?
Its GI50 is 1.03 µM.

And the TGI [19]?
Its TGI is 2.2 µM.

And the GI50 [20]?
The GI50 was 0.701 µM.

What about the TGI [20] of the same compound?
The TGI was 1.96 µM.

What about the GI50 [21] of the same compound?
The GI50 was 0.846 µM.

And the TGI [21]?
Its TGI is 1.62 µM.

What about the GI50 [22] of the same compound?
The GI50 was 0.847 µM.

And the TGI [22]?
Its TGI is 1.58 µM.

And the GI50 [23]?
Its GI50 is 0.831 µM.

What about the TGI [23] of the same compound?
The TGI was 1.54 µM.

What about the GI50 [24] of the same compound?
The GI50 was 0.901 µM.

And the TGI [24]?
Its TGI is 1.74 µM.

And the GI50 [25]?
Its GI50 is 0.792 µM.

What about the TGI [25] of the same compound?
Its TGI is 1.52 µM.

And the GI50 [26]?
The GI50 was 0.848 µM.

What about the TGI [26] of the same compound?
Its TGI is 1.69 µM.

What about the GI50 [27] of the same compound?
Its GI50 is 2.13 µM.

What about the TGI [27] of the same compound?
Its TGI is 4.24 µM.

What about the GI50 [28] of the same compound?
The GI50 was 0.89 µM.

What about the TGI [28] of the same compound?
Its TGI is 1.79 µM.

What about the GI50 [29] of the same compound?
Its GI50 is 0.926 µM.

And the TGI [29]?
Its TGI is 2.03 µM.

What about the GI50 [30] of the same compound?
The GI50 was 0.922 µM.

And the TGI [30]?
The TGI was 1.97 µM.

And the GI50 [31]?
The GI50 was 0.867 µM.

And the TGI [31]?
Its TGI is 1.63 µM.

What about the GI50 [32] of the same compound?
The GI50 was 0.909 µM.

And the TGI [32]?
The TGI was 1.78 µM.

What about the GI50 [33] of the same compound?
Its GI50 is 0.868 µM.

And the TGI [33]?
Its TGI is 1.6 µM.

And the GI50 [34]?
Its GI50 is 0.861 µM.

And the TGI [34]?
The TGI was 1.67 µM.

What about the GI50 [35] of the same compound?
The GI50 was 0.816 µM.

What about the TGI [35] of the same compound?
The TGI was 1.53 µM.

And the GI50 [36]?
The GI50 was 0.92 µM.

And the TGI [36]?
The TGI was 1.84 µM.

And the GI50 [37]?
The GI50 was 0.852 µM.

And the TGI [37]?
The TGI was 1.54 µM.

And the GI50 [38]?
The GI50 was 0.86 µM.

What about the TGI [38] of the same compound?
The TGI was 1.61 µM.

What about the GI50 [39] of the same compound?
Its GI50 is 0.653 µM.

What about the TGI [39] of the same compound?
The TGI was 1.35 µM.

What about the GI50 [40] of the same compound?
Its GI50 is 0.877 µM.

What about the TGI [40] of the same compound?
The TGI was 1.65 µM.

And the GI50 [41]?
The GI50 was 0.865 µM.

What about the TGI [41] of the same compound?
Its TGI is 1.7 µM.

And the GI50 [42]?
Its GI50 is 0.905 µM.

What about the TGI [42] of the same compound?
The TGI was 1.74 µM.

What about the GI50 [43] of the same compound?
Its GI50 is 0.998 µM.

And the TGI [43]?
The TGI was 2.08 µM.

What about the GI50 [44] of the same compound?
The GI50 was 0.902 µM.

What about the TGI [44] of the same compound?
Its TGI is 1.63 µM.

What about the GI50 [45] of the same compound?
The GI50 was 0.88 µM.

And the TGI [45]?
The TGI was 1.65 µM.

And the GI50 [46]?
The GI50 was 0.922 µM.

And the TGI [46]?
The TGI was 1.86 µM.

What about the GI50 [47] of the same compound?
Its GI50 is 0.894 µM.

What about the TGI [47] of the same compound?
Its TGI is 1.81 µM.

What about the GI50 [48] of the same compound?
The GI50 was 0.841 µM.

What about the TGI [48] of the same compound?
Its TGI is 1.56 µM.

What about the GI50 [49] of the same compound?
The GI50 was 0.785 µM.

What about the TGI [49] of the same compound?
Its TGI is 1.48 µM.

What about the GI50 [50] of the same compound?
Its GI50 is 0.892 µM.

What about the TGI [50] of the same compound?
The TGI was 1.74 µM.

What about the GI50 [51] of the same compound?
Its GI50 is 0.866 µM.

And the TGI [51]?
The TGI was 1.66 µM.

What about the GI50 [52] of the same compound?
Its GI50 is 0.906 µM.

And the TGI [52]?
The TGI was 1.74 µM.

And the GI50 [53]?
Its GI50 is 0.862 µM.

What about the TGI [53] of the same compound?
Its TGI is 1.55 µM.

What about the GI50 [54] of the same compound?
The GI50 was 0.846 µM.

And the TGI [54]?
Its TGI is 1.55 µM.

And the GI50 [55]?
The GI50 was 0.862 µM.

And the TGI [55]?
The TGI was 1.77 µM.

What about the GI50 [56] of the same compound?
The GI50 was 0.77 µM.

What about the TGI [56] of the same compound?
Its TGI is 1.49 µM.

And the GI50 [57]?
The GI50 was 0.806 µM.

What about the TGI [57] of the same compound?
The TGI was 1.53 µM.

What about the GI50 [58] of the same compound?
The GI50 was 0.843 µM.

What about the TGI [58] of the same compound?
The TGI was 1.58 µM.

Source: PubChem BioAssay (NCI)
